# Measured values from patent US7879848B2, “Dipeptidyl Peptidase-IV inhibiting compounds, method of preparing the same, and pharmaceutical compositions containing the same as an active agent” (LG Life Sciences, Ltd., priority 2005, dated 2011).
# Target: T1, Dipeptidyl Peptidase-IV (DPP-IV) (Homo sapiens, UniProt P27487)
# T1 construct: made in house
# Assay: Measurement of DPP-IV Activity-Inhibiting Ability (fluorescent substrate Ac-Gly-Pro-AFC)
# Assay type: biochemical
# Settings: 25° C., 50 mmol HEPES (pH 7.4), DP-IV 7.1 nM, enzyme reaction for 1 hour
# Excerpt: Dipeptidyl Peptidase-IV (DPP-IV), known as serine protease, was obtained by a modification of the known method (Tanaka T. et al, Proc. Natl. Acad. Sci. USA, (1994) 91, 3082-3086), which comprises cloning, purification by use of Baculo-Virus and activation steps. DPP-IV was used to test the pharmaceutical efficacy of candidate inhibitors as follows. The cloned DP-IV was expressed in Baculo-Virus, which was purified by nickel column and then subjected to dialysis. The inhibitors synthesized in Examples were tested to determine the binding activity there of using a fluorescent substrate, Ac-Gly-Pro-AFC. Enzyme reactions were conducted for various concentrations of inhibitors, using 100 µM Ac-Gly-Pro-AFC at 25° C. in a buffer solution containing 50 mmol HEPES (pH 7.4), with the concentration of DP-IV being 7.1 nM. […] As the fluorescent spectrometer, Spectra MAX GeminiXS fluorescent spectrometer from Molecular Device Co. was used and the excitation frequency and emission frequency were set to 400 nm and 505 nm, respectively.
# T1 sequence (P27487 whole entry): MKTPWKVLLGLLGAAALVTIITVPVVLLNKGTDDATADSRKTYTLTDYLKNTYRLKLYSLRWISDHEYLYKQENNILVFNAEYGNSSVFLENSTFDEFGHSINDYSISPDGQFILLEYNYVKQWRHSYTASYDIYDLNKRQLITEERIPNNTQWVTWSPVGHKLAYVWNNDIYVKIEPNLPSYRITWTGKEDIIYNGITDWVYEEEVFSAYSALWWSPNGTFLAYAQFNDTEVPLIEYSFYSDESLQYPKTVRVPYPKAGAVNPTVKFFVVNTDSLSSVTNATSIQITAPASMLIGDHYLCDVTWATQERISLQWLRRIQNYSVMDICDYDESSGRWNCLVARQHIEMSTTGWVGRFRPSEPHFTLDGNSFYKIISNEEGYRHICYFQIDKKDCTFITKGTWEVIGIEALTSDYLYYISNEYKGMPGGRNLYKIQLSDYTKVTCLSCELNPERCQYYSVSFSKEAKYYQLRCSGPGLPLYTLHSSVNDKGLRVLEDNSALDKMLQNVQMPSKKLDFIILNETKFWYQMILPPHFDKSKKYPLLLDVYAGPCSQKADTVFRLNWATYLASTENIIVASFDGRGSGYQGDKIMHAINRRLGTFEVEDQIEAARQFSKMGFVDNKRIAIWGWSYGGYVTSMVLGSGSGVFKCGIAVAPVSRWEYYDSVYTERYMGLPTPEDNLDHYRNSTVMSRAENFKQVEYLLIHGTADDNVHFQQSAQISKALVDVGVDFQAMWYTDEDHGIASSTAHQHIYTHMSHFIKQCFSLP
row,Compound,IC50
1,"C[C@@H]1CCC(=O)N(C[C@@H](N)CC(=O)N2CCc3c(nc(C4CC4)nc3C(F)(F)F)C2)C1 [Ex. 26, 1-{(2S)-2-amino-4-[2-cyclopropyl-4-(trifluoromethyl)-5,8-dihydropyrido[3,4-d]pyrimidin-7(6H)-yl]-4-oxobutyl}-5-methylpiperidin-2-one]",5 nM
2,"C[C@@H]1CCC(=O)N(C[C@@H](N)CC(=O)N2CCc3c(nc(-c4ccccc4)nc3C(F)(F)F)C2)C1 [Ex. 22, (5R)-1-{(2S)-2-amino-4-oxo-4-[2-phenyl-4-(trifluoromethyl)-5,8-dihydropyrido[3,4-d]pyrimidin-7(6H)-yl]butyl}-5-methylpiperidin-2-one]",49 nM
3,"CCc1nc2c(c(C(F)(F)F)n1)CCN(C(=O)C[C@H](N)CN1C[C@H](C)CCC1=O)C2 [Ex. 95, (5R)-1-{(2S)-2-amino-4-[2-ethyl-4-(trifluoromethyl)-5,8-dihydropyrido[3,4-d]pyrimidin-7(6H)-yl]-4-oxobutyl}-5-methylpiperidin-2-one]",13 nM
4,"N[C@@H](CC(=O)N1CCc2sc(-c3ccc(C(F)(F)F)cc3)nc2C1)CN1CC(F)(F)CCC1=O [Ex. 43, 1-[(2S)-2-amino-4-oxo-4-{2-[4-(trifluoromethyl)phenyl]-6,7-dihydro[1,3]thiazolo[4,5,c]pyridin-5(4H)-yl}butyl]-5,5-difluoropiperidin-2-one]",9 nM
5,"C[C@@H]1CCC(=O)N(C[C@@H](N)CC(=O)N2CCn3c(nnc3C(F)(F)F)C2)C1 [Ex. 12, 1-[2S-amino-4-oxo-4-(3-trifluoromethyl-5,6-dihydro-8H-[1,2,4]triazolo[4,3-a]pyrazin-7-yl)-butyl]-5R-methyl-piperidin-2-one]",35 nM
6,"C[C@@H]1CCC(=O)N(C[C@@H](N)CC(=O)N2CCc3c(nc(-c4ccncc4)nc3C(F)(F)F)C2)C1 [Ex. 56, (5R)-1-{(2S)-2-amino-4-oxo-4-[2-pyridin-4-yl-4-(trifluoromethyl)-5,8-dihydropyrido[3,4-d]pyrimidin-7(6H)-yl]butyl}-5-methylpiperidin-2-one]",11 nM
7,"C[C@H]1CN(C[C@@H](N)CC(=O)N2CCc3c(cccc3C(F)(F)F)C2)C(=O)CO1 [Ex. 29, (6S)-4-{(2S)-2-amino-4-oxo-4-[5-(trifluoromethyl)-3,4-dihydroisoquinolin-2(1H)-yl]butyl}-6-methylmorpholine-3-one]",175 nM
8,"C[C@@H]1CCC(=O)N(C[C@@H](N)CC(=O)N2CCc3c(nc(CF)nc3C(F)(F)F)C2)C1 [Ex. 101, (5R)-1-{(2S)-2-amino-4-[2-(fluoromethyl)-4-(trifluoromethyl)-5,8-dihydropyrido[3,4-d]pyrimidin-7(6H)-yl]-4-oxobutyl}-5-methylpiperidin-2-one]",21 nM
9,C[C@H]1CN(C[C@@H](N)CC(=O)N2CCc3c(nc(-c4cccc(F)c4)nc3C(F)(F)F)C2)C(=O)CO1 [Ex. 33],170 nM
10,"C[C@@H]1CCC(=O)N(C[C@@H](N)CC(=O)N2CCc3c(nc(-c4cccs4)nc3C(F)(F)F)C2)C1 [Ex. 62, (5R)-1-{(2S)-2-amino-4-oxo-4-[2-(2-thienyl)-4-(trifluoromethyl)-5,8-dihydropyrido[3,4-d]pyrimidin-7(6H)-yl]butyl}-5-methylpiperidin-2-one]",32 nM
11,"N[C@@H](CC(=O)N1CCc2sc(-c3ccc(F)cc3)nc2C1)CN1CC(F)(F)CCC1=O [Ex. 46, 1-{(2S)-2-amino-4-[2-(4-fluorophenyl)-6,7-dihydro[1,3]thiazolo[4,5,c]pyridin-5(4H)-yl]-4-oxobutyl}-5,5-difluoropiperidin-2-one]",22 nM
12,"C[C@@H]1CCC(=O)N(C[C@@H](N)CC(=O)N2CCc3c(nc(C4CCC4)nc3C(F)(F)F)C2)C1 [Ex. 112, (5R)-1-{(2S)-2-amino-4-[2-cyclobutyl-4-(trifluoromethyl)-5,8-dihydropyrido[3,4-d]pyrimidin-7(6H)-yl]-4-oxobutyl}-5-methylpiperidin-2-one]",10 nM
13,"C[C@@H]1CCC(=O)N(C[C@@H](N)CC(=O)N2CCc3c(nc(C4CCCC4)nc3C(F)(F)F)C2)C1 [Ex. 38, (5R)-1-{(2S)-2-amino-4-[2-cyclopentyl-4-(trifluoromethyl)-5,8-dihydropyrido[3,4-d]pyrimidin-7(6H)-yl]-4-oxobutyl}-5-methylpiperidin-2-one]",20 nM
14,"CC1CCN(C[C@@H](N)CC(=O)N2CCn3c(nnc3C(F)(F)F)C2)C1=O (stereo partly drawn) [Ex. 8, 1-[2S-amino-4-oxo-4-(3-trifluoromethyl-5,6-dihydro-8H-[1,2,4]triazolo[4,3-a]pyrazin-7-yl)-butyl]-3-methyl-pyrrolidin-2-one]",4150 nM
15,C[C@H]1CN(C[C@@H](N)CC(=O)N2CCc3c(nc(-c4ccc(F)c(F)c4)nc3C(F)(F)F)C2)C(=O)CO1 [Ex. 36],33 nM

# More lines, in order of falling IC50, values ahead:
row,IC50,Compound
1,636 nM,"N[C@@H](CC(=O)N1CCc2c(nc(C(F)(F)F)nc2C(F)(F)F)C1)CN1CC(C(F)(F)F)CCC1=O (stereo partly drawn) [Ex. 107, 1-{(2S)-2-amino-4-[2,4-bis(trifluoromethyl)-5,8-dihydropyrido[3,4-d]pyrimidin-7(6H)-yl]-4-oxobutyl}-5-(trifluoromethyl)piperidin-2-one]"
2,378 nM,"N[C@@H](CC(=O)N1CCn2c(nnc2C(F)(F)F)C1)CN1CC(C(F)(F)F)CC1=O (stereo partly drawn) [Ex. 13, 1-[2S-amino-4-oxo-4-(3-trifluoromethyl-5,6-dihydro-8H-[1,2,4]triazolo[4,3-a]pyrazin-7-yl)-butyl]-4-trifluoromethyl-pyrrolidin-2-one]"
3,279 nM,"C[C@@H]1CCC(=O)N(C[C@@H](N)CC(=O)N2CCc3sc(C4CCOCC4)nc3C2)C1 [Ex. 47, (5R)-1-{(2S)-2-amino-4-oxo-4-[2-(tetrahydro-2H-pyran-4-yl)-6,7-dihydro[1,3]thiazolo[4,5,c]pyridin-5(4H)-yl]butyl}-5-methylpiperidin-2-one]"
4,238 nM,"CC1CN(C[C@@H](N)CC(=O)N2CCn3c(nnc3C(F)(F)F)C2)C(=O)CS1 (stereo partly drawn) [Ex. 94, 4-{(2S)-2-amino-4-oxo-4-[3-(trifluoromethyl)-5,6-dihydro[1,2,4]triazolo[4,3-a]pyrazin-7(8H)-yl]butyl}-6-methylthiomorpholin-3-one]"
5,70 nM,"CC1CCN(C[C@@H](N)CC(=O)N2CCc3c(nc(-c4ccoc4)nc3C(F)(F)F)C2)C(=O)C1 (stereo partly drawn) [Ex. 111, 1-{(2S)-2-amino-4-[2-(3-furyl)-4-(trifluoromethyl)-5,8-dihydropyrido[3,4-d]pyrimidin-7(6H)-yl]-4-oxobutyl}-4-methylpiperidin-2-one]"
6,68 nM,"N[C@@H](CC(=O)N1CCc2c(nc(C(F)(F)C(F)(F)F)nc2C(F)(F)F)C1)CN1CC(F)(F)CCC1=O [Ex. 98, 1-{(2S)-2-amino-4-oxo-4-[2-(pentafluoroethyl)-4-(trifluoromethyl)-5,8-dihydropyrido[3,4-d]pyrimidin-7(6H)-yl]butyl}-5,5-difluoropiperidin-2-one]"
7,57 nM,"C[C@H]1CN(C[C@@H](N)CC(=O)N2CCc3c(nc(C(F)(F)C(F)(F)F)nc3C(F)(F)F)C2)C(=O)CO1 [Ex. 97, (6S)-4-{(2S)-2-amino-4-oxo-4-[2-(pentafluoroethyl)-4-(trifluoromethyl)-5,8-dihydropyrido[3,4-d]pyrimidin-7(6H)-yl]butyl}-6-methylmorpholine-3-one]"
8,51 nM,C[C@H]1CN(C[C@@H](N)CC(=O)N2CCc3c(nc(C4CCCC4)nc3C(F)(F)F)C2)C(=O)CO1 [Ex. 39]
9,36 nM,"N[C@@H](CC(=O)N1CCc2c(nc(Cc3ccc(F)cc3)nc2C(F)(F)F)C1)CN1CC(F)(F)CCC1=O [Ex. 59, 1-{(2S)-2-amino-4-[2-(4-fluorobenzyl)-4-(trifluoromethyl)-5,8-dihydropyrido[3,4-d]pyrimidin-7(6H)-yl]-4-oxobutyl}-5,5-difluoropiperidin-2-one]"
10,35 nM,"N[C@@H](CC(=O)N1CCc2c(nc(-c3cccs3)nc2C(F)(F)F)C1)CN1CC(F)(F)CCC1=O [Ex. 63, 1-{(2S)-2-amino-4-oxo-4-[2-(2-thienyl)-4-(trifluoromethyl)-5,8-dihydropyrido[3,4-d]pyrimidin-7(6H)-yl]butyl}-5,5-difluoropiperidin-2-one]"
11,26 nM,"CC(C)c1nc2c(c(C(F)(F)F)n1)CCN(C(=O)C[C@H](N)CN1CC(F)(F)CCC1=O)C2 [Ex. 74, 1-{(2S)-2-amino-4-[2-isopropyl-4-(trifluoromethyl)-5,8-dihydropyrido[3,4-d]pyrimidin-7(6H)-yl]-4-oxobutyl}-5,5-difluoropiperidin-2-one]"
12,16 nM,"C[C@@H]1CCC(=O)N(C[C@@H](N)CC(=O)N2CCc3c(nc(-c4ccoc4)nc3C(F)(F)F)C2)C1 [Ex. 66, (5R)-1-{(2S)-2-amino-4-[2-(3-furyl)-4-(trifluoromethyl)-5,8-dihydropyrido[3,4-d]pyrimidin-7(6H)-yl]-4-oxobutyl}-5-methylpiperidin-2-one]"
13,14 nM,"C[C@H]1CN(C[C@@H](N)CC(=O)N2CCc3sc(-c4ccc(C(F)(F)F)cc4)nc3C2)C(=O)CO1 [Ex. 42, (6S)-4-[(2S)-2-amino-4-oxo-4-{2-[4-(trifluoromethyl)phenyl]-6,7-dihydro[1,3]thiazolo[4,5,c]pyridin-5(4H)-yl}butyl]-6-methylmorpholine-3-one]"
14,13 nM,"C[C@@H]1CCC(=O)N(C[C@@H](N)CC(=O)N2CCc3sc(-c4ccc(F)cc4)nc3C2)C1 [Ex. 44, (5R)-1-{(2S)-2-amino-4-[2-(4-fluorophenyl)-6,7-dihydro[1,3]thiazolo[4,5,c]pyridin-5(4H)-yl]-4-oxobutyl}-5-methylpiperidin-2-one]"
